Data reported in US11806346B2, “HTT modulators for treating Huntington's disease” (CHDI Foundation, Inc., priority 2020, dated 2023).
Like-named read-outs stand apart in the source and are kept apart here.

Test system: tHTT (total HTT protein)
Test: Time-resolved FRET assay, total huntingtin (tHTT) detection in cell lysates
Type: cell-based, human
How it was run: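 TR-FRET readout on cell lysates, with the donor/acceptor ratio reflecting relative total HTT.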

[1] = GEN020 hESCs (mutant 48 Q repeat allele), compounds added for 48 hours, TR-FRET on lysate; read-out: tHTT EC50
[2] = read-out: tHTT EC50; GEN020 hESCs (mutant 48 Q repeat allele), compounds added for 48 hours, TR-FRET on lysate

| SMILES | EC50 [1] [nM] | EC50 [2] [nM] |
| --- | --- | --- |
| Cc1cn2cc(NC(=O)c3cnc(N4CC5NCCC54)cn3)cc(F)c2n1 (centres unmarked) [Example 308, 5-(2,6-diazabicyclo[3.2.0]heptan-6-yl)-N-(8-fluoro-2-methylimidazo[1,2-a]pyridin-6-yl)pyrazine-2-carboxamide] | 100 to 500 | – |
| Cc1cn2cc(NC(=O)c3cnc(N4CC[C@@H](CNC5CC5)C4)cn3)cc(Cl)c2n1 [Example 311] | 100 to 500 | – |
| Cc1cn2cc(NC(=O)c3cnc(N4CC(CNC5CC5)C4)cn3)cc(Cl)c2n1 [Example 312] | < 100 | – |
| COc1cc(NC(=O)c2cnc(N3CC[C@@H](CNC4CC4)C3)cn2)cn2cc(C)nc12 [Example 313] | 100 to 500 | – |
| COc1cc(NC(=O)c2cnc(N3CC(CNC4CC4)C3)cn2)cn2cc(C)nc12 [Example 314] | < 100 | – |
| Cc1cc(NC(=O)c2cnc(N3CC(CNC4CC4)C3)cn2)cn2cc(CF)nc12 [Example 315, 5-(3-((cyclopropylamino)methyl)azetidin-1-yl)-N-(2-(fluoromethyl)-8-methylimidazo[1,2-a]pyridin-6-yl)pyrazine-2-carboxamide] | – | 500 to 1000 |
| Cc1cn2cc(NC(=O)c3cnc(N4CCC(CNC5CC5)C4=O)cn3)cc(F)c2n1 (centres unmarked) [Example 316, 5-(3-((cyclopropylamino)methyl)-2-oxopyrrolidin-1-yl)-N-(8-fluoro-2-methylimidazo[1,2-a]pyridin-6-yl)pyrazine-2-carboxamide] | 100 to 500 | – |
| Cc1cn2cc(NC(=O)c3cnc(N4C[C@H]5CN(C)C[C@H]5C4=O)cn3)cc(F)c2n1 [Example 317, N-(8-fluoro-2-methylimidazo[1,2-a]pyridin-6-yl)-5-((3aR,6aS)-5-methyl-1-oxohexahydropyrrolo[3,4-c]pyrrol-2(1H)-yl)pyrazine-2-carboxamide] | 100 to 500 | – |
| CN(CC1CN(c2cnc(C(=O)Nc3cc(F)c4nn(C)cc4c3)cn2)C1)C1CC1 [Example 320, 5-(3-((cyclopropyl(methyl)amino)methyl)azetidin-1-yl)-N-(7-fluoro-2-methyl-2H-indazol-5-yl)pyrazine-2-carboxamide] | 100 to 500 | – |
| Cn1cc2cc(NC(=O)c3cnc(N4CC(CCNC5CC5)C4)cn3)cc(F)c2n1 [Example 321, 5-(3-(2-(cyclopropylamino)ethyl)azetidin-1-yl)-N-(7-fluoro-2-methyl-2H-indazol-5-yl)pyrazine-2-carboxamide] | 500 to 1000 | – |
| COCCOC1CN(CC2CN(c3cnc(C(=O)Nc4cc(F)c5nc(C)cn5c4)cn3)C2)C1 [Example 322, N-(8-fluoro-2-methyl-imidazo[1,2-a]pyridin-6-yl)-5-[3-[[3-(2-methoxyethoxy)azetidin-1-yl]methyl]azetidin-1-yl]pyrazine-2-carboxamide] | 100 to 500 | – |
| Cn1cc2cc(NC(=O)c3cnc(N4CC(CNCC(F)F)C4)cn3)cc(F)c2n1 [Example 323, 5-(3-(((2,2-difluoroethyl)amino)methyl)azetidin-1-yl)-N-(7-fluoro-2-methyl-2H-indazol-5-yl)pyrazine-2-carboxamide] | – | 500 to 1000 |
| CCN[C@H]1CN(c2cnc(C(=O)Nc3cn4cc(C)nc4c(OC)n3)cn2)C[C@H]1F [Example 324, 5-((3S,4R)-3-(ethylamino)-4-fluoropyrrolidin-1-yl)-N-(8-methoxy-2-methylimidazo[1,2-a]pyrazin-6-yl)pyrazine-2-carboxamide] | 100 to 500 | – |
| CCNC1CN(c2cnc(C(=O)Nc3cn4cc(C)nc4c(OC)n3)cn2)CC1F [Example 325, 5-((3R,4S)-3-(ethylamino)-4-fluoropyrrolidin-1-yl)-N-(8-methoxy-2-methylimidazo[1,2-a]pyrazin-6-yl)pyrazine-2-carboxamide] | 100 to 500 | – |
| CCNC1CN(c2cnc(C(=O)Nc3cc(F)c4nc(C)cn4c3)cn2)CC1F (centres unmarked) [Example 326] | 100 to 500 | – |
| Cc1cn2cc(NC(=O)c3cnc(N4CCC(CN5CCCC5)C4)cn3)cc(F)c2n1 (centres unmarked) [Example 327] | 100 to 500 | – |
| CNC1CN(c2ncc(C(=O)Nc3cn4cc(C)nc4c(C)n3)cn2)CC1F (centres unmarked) [Example 331] | 500 to 1000 | – |
| CNC1CN(c2ncc(C(=O)Nc3cc(F)c4nc(C)cn4c3)cn2)CC1F (centres unmarked) [Example 332] | 100 to 500 | – |
| CCNC1CN(c2ncc(C(=O)Nc3cn4cc(C)nc4c(C)n3)cn2)CC1F (centres unmarked) [Example 333] | 500 to 1000 | – |
| CCNC1CN(c2ncc(C(=O)Nc3cn4cc(C)nc4c(C)n3)cn2)CC1F (centres unmarked) [Example 334] | 500 to 1000 | – |
| Cc1cn2cc(NC(=O)c3cnc(N4CC(CN(C)C5CC5)C4)nc3)cc(F)c2n1 [Example 335, 2-[3-[[cyclopropyl(methyl)amino]methyl]azetidin-1-yl]-N-(8-fluoro-2-methyl-imidazo[1,2-a]pyridin-6-yl)pyrimidine-5-carboxamide] | 100 to 500 | – |

| SMILES | EC50 [1] [nM] | EC50 [2] [nM] |
| --- | --- | --- |
| Cc1cn2cc(NC(=O)c3cnc(N4CC5(CNCCO5)C4)cn3)cc(F)c2n1 [Example 338, N-(8-fluoro-2-methylimidazo[1,2-a]pyridin-6-yl)-5-(5-oxa-2,8-diazaspiro[3.5]nonan-2-yl)pyrazine-2-carboxamide] | 100 to 500 | – |
| Cc1nc2c(F)cc(NC(=O)c3cnc(N4CCNC(C)C4)cn3)cc2o1 (centres unmarked) [Example 339, N-(4-fluoro-2-methylbenzo[d]oxazol-6-yl)-5-(3-methylpiperazin-1-yl)pyrazine-2-carboxamide] | 1000 to 10000 | – |
| Cc1nc2c(F)cc(NC(=O)c3cnc(N4CC[C@@H](N)C4)cn3)cc2o1 [Example 340] | 100 to 500 | – |
| Cc1cn2cc(NC(=O)c3cnc(N4CC[C@@H](NC5CC5)C4)cn3)cc(Cl)c2n1 [Example 341] | < 100 | – |
| Cc1cn2cc(NC(=O)c3cnc(N4CC(CN5CC[C@H](F)C5)C4)cn3)cc(Cl)c2n1 [Example 342] | 100 to 500 | – |
| Cc1cn2cc(NC(=O)c3cnc(N4CC(CN5CC6C[C@]6(F)C5)C4)cn3)cc(F)c2n1 (stereo partly drawn) [Example 343, N-(8-fluoro-2-methylimidazo[1,2-a]pyridin-6-yl)-5-(3-(((1R)-1-fluoro-3-azabicyclo[3.1.0]hexan-3-yl)methyl)azetidin-1-yl)pyrazine-2-carboxamide] | 100 to 500 | – |
| Cc1cc2cc(NC(=O)c3cnc(N4CC(CNC5CC5)C4)cn3)cc(Cl)n2n1 [Example 344, N-(7-chloro-2-methylpyrazolo[1,5-a]pyridin-5-yl)-5-(3-((cyclopropylamino)methyl)azetidin-1-yl)pyrazine-2-carboxamide] | – | 100 to 500 |
| CCN[C@@H]1CCN(c2cnc(C(=O)Nc3cn4cc(C)nc4cc3OC)cn2)C1 [Example 345, (R)-5-(3-(ethylamino)pyrrolidin-1-yl)-N-(7-methoxy-2-methylimidazo[1,2-a]pyridin-6-yl)pyrazine-2-carboxamide] | < 100 | – |
| Cc1cn2cc(NC(=O)c3cnc(N4CC[C@@H](NC5CC5)C4=O)cn3)cc(F)c2n1 [Example 348, (R)-5-(3-(cyclopropylamino)-2-oxopyrrolidin-1-yl)-N-(8-fluoro-2-methylimidazo[1,2-a]pyridin-6-yl)pyrazine-2-carboxamide] | 100 to 500 | – |
| CNCC1CN(c2cnc(C(=O)Nc3cc(F)c4nc(C)oc4c3)cn2)C1 [Example 349, N-(4-fluoro-2-methylbenzo[d]oxazol-6-yl)-5-(3-((methylamino)methyl)azetidin-1-yl)pyrazine-2-carboxamide] | 100 to 500 | – |
| Cn1cc2cc(NC(=O)c3cnc(N4CC(CN5CC(F)C5)C4)cn3)cc(F)c2n1 [Example 350, N-(7-fluoro-2-methyl-2H-indazol-5-yl)-5-(3-((3-fluoroazetidin-1-yl)methyl)azetidin-1-yl)pyrazine-2-carboxamide] | 100 to 500 | – |
| COc1cc2nn(C)cc2cc1NC(=O)c1cnc(N2CC[C@@H](CNC3CC3)C2)cn1 [Example 351, (S)-5-(3-((cyclopropylamino)methyl)pyrrolidin-1-yl)-N-(6-methoxy-2-methyl-2H-indazol-5-yl)pyrazine-2-carboxamide] | 100 to 500 | – |
| Cc1cn2cc(NC(=O)c3cnc(N4C[C@H]5NCCO[C@@H]5C4)cn3)cc(F)c2n1 [Example 352, N-(8-fluoro-2-methylimidazo[1,2-a]pyridin-6-yl)-5-((4aR,7aR)-hexahydropyrrolo[3,4-b][1,4]oxazin-6(2H)-yl)pyrazine-2-carboxamide] | 500 to 1000 | – |
| Cc1cn2cc(NC(=O)c3cnc(N(C)C4CC(C)(C)NC(C)(C)C4)cn3)cc(F)c2n1 [Example 353, N-(8-fluoro-2-methylimidazo[1,2-a]pyridin-6-yl)-5-(methyl(2,2,6,6-tetramethylpiperidin-4-yl)amino)pyrazine-2-carboxamide] | 100 to 500 | – |
| CN[C@@H]1CCN(c2cnc(C(=O)Nc3cn4cc(C)nc4c(C)c3F)cn2)C1 [Example 354, N-(7-fluoro-2,8-dimethyl-imidazo[1,2-a]pyridin-6-yl)-5-[(3R)-3-(methylamino)pyrrolidin-1-yl]pyrazine-2-carboxamide] | < 100 | – |
| Cc1cn2cc(NC(=O)c3cnc(N4CC(CNC5CC5)C4)cn3)c(F)c(C)c2n1 [Example 355, 5-[3-[(cyclopropylamino)methyl]azetidin-1-yl]-N-(7-fluoro-2,8-dimethyl-imidazo[1,2-a]pyridin-6-yl)pyrazine-2-carboxamide] | < 100 | – |
| Cc1cn2cc(NC(=O)c3cnc(N4CC(CN5CC[C@@](C)(F)C5)C4)cn3)cc(F)c2n1 [Example 356, N-(8-fluoro-2-methyl-imidazo[1,2-a]pyridin-6-yl)-5-[3-[[(3R)-3-fluoro-3-methyl-pyrrolidin-1-yl]methyl]azetidin-1-yl]pyrazine-2-carboxamide] | < 100 | – |
| Cc1cn2cc(NC(=O)c3cnc(N4CC(CN5CC[C@](C)(F)C5)C4)cn3)cc(F)c2n1 [Example 357] | < 100 | – |
| Cc1cn2cc(NC(=O)c3cnc(C4=CCNCC4)cn3)cc(F)c2n1 [Example 358, N-(8-fluoro-2-methyl-imidazo[1,2-a]pyridin-6-yl)-5-(1,2,3,6-tetrahydropyridin-4-yl)pyrazine-2-carboxamide] | 100 to 500 | – |
| COc1nc(NC(=O)c2cnc(N3CC(CN4CC(OC)C4)C3)cn2)cn2cc(C)nc12 [Example 359, 5-[3-[(3-Methoxyazetidin-1-yl)methyl]azetidin-1-yl]-N-(8-methoxy-2-methyl-imidazo[1,2-a]pyrazin-6-yl)pyrazine-2-carboxamide] | 100 to 500 | – |
